Assay results from patent US12599562B2, “Nanocrystal microparticles of poorly soluble drugs and methods of production and use thereof” (The Board of Regents of the University of Oklahoma, priority 2017, dated 2026).
In brackets after ≈: the same amount, converted by molar mass.

What was measured:
[1] = Apparent maximum solubility of SHetA2 NCs and SHetA2 NC-MPs in PBS containing 0.05% SDS; type: physicochemical; details: aqueous with cosolvent or surfactant or cyclodextrin, thermodynamic from solid, at first 5 min, read-out: apparent maximum solubility (highest drug solubility)
Description: SHetA2 NCs, SHetA2 MPs, and SHetA2 NC-MPs in PBS containing 0.05% SDS.
Apparent Maximum Solubility of SHetA2 NCs and SHetA2 NC-MPs
The apparent maximum solubility profiles of SHetA2 NCs, SHetA2 NC-MPs, unprocessed SHetA2 (i.e., unprocessed drug), and spray dried SHetA2 MPs (i.e., microparticulate amorphous drug) are shown in FIG. 8. […] SHetA2 NC-MPs and spray dried SHetA2 MPs followed a similar dissolution profile after 45 min. […] After 6 h, SHetA2 NCs followed a similar dissolution profile with the other two formulations.

[2] = Dissolution profile (cumulative percentage of SHetA2 dissolved); type: physicochemical; details: size range 2.82-4.46 μm; level reached (NCs and NC-MPs rising until 5 h)
Excerpt: Cumulative percentage dissolved SHetA2 from unprocessed SHetA2, SHetA2 NCs, SHetA2 MPs, and SHetA2 NC-MPs.
Dissolution Profile of SHetA2 NC-MPs, Unprocessed SHetA2, and Spray Dried SHetA2 MPs of Size Range 2.82-4.46 μm
The mean cumulative percentage of SHetA2 dissolved versus time data for SHetA2 NCs, SHetA2 NC-MPs, spray dried SHetA2 MPs, and unprocessed SHetA2 is shown in FIG. 9. MPs in sizes 2.82-4.46 μm were studied, because the particles in this size range are deposited in the alveolar region of the lungs. […] The concentration of SHetA2 increased at a constant rate for SHetA2 NCs and SHetA2 NC-MPs until 5 h. […] In the case of spray dried SHetA2 MPs, there was a prompt release within the first 15 min, then SHetA2 concentration increased slowly until leveling at a cumulative percentage of 21.19±4.40%. In contrast, the unprocessed SHetA2 dissolved only 3.51±0.9%.

With `CC1(C)CC(C)(C)c2cc(NC(=S)Nc3ccc([N+](=O)[O-])cc3)ccc2S1` [unprocessed SHetA2] as the molecule, how does the solubility at 5 min [1] read?
The solubility at 5 min was 0.48 ± 0.11 µg/mL (≈ 1.2 µM).

What about the “cumulative percentage of SHetA2 dissolved” value [2] of the same molecule?
Its value is 3.51±0.9%.
